Entries after “also recorded” stand apart in the source; their conditions may differ. Counter-ions that a name gives are not always drawn.
Key:
[1] = cited from earlier work
[2] = tested on: Pseudomonas aeruginosa NC-5 strain; assay: Protective effect against experimentally infected mice, two oral administrations; type: in vivo, mice infected with Pseudomonas aeruginosa
Protocol: c. Mice (one group included five mice) were infected with Pseudomonas aeruginosa NC-5 strain via the intraperitoneal route and the test substance was orally administered twice, i. e., immediately after challenge of the test organism and after 2 hours.

Klebsiella genus = conditions: background; cited from earlier work
Klebsiella 78 strain = assay: MIC distribution, clinical isolated strains; type: cell-based; conditions: of 78 strains; for number of strains with MIC 1.56: MIC 1.56 μ/ml; for number of strains with MIC 12.5: MIC 12.5 μ/ml; for number of strains with MIC 25: MIC 25 μ/ml; for number of strains with MIC 50: MIC 50 μ/ml; for number of strains with MIC 100: MIC 100 μ/ml; for number of strains with MIC 400: MIC 400 μ/ml; for number of strains with MIC >400: MIC >400 μ/ml
Source text: (§1) It is clear from the results shown in the above tables, as regards the antibacterial activities against clinical isolated strains, the compounds of this invention show quite high activity against not only Pseudomonas aeruginosa but also against Klebsiella as compared with carbenicillin

[3] = tested on: Pseudomonas aeruginosa 35 strain; assay: MIC distribution, clinical isolated strains; type: cell-based; conditions: of 35 strains; for number of strains with MIC 1.56: MIC 1.56 μ/ml; for number of strains with MIC 12.5: MIC 12.5 μ/ml; for number of strains with MIC 25: MIC 25 μ/ml; for number of strains with MIC 50: MIC 50 μ/ml; for number of strains with MIC 100: MIC 100 μ/ml; for number of strains with MIC >100: MIC >100 μ/ml
Source text: (Pseudomonas aeruginosa 35 strain)
as §1

[4] = tested on: Escherichia coli 31 strain; assay: MIC distribution, clinical isolated strains; type: cell-based; conditions: of 31 strains; for number of strains with MIC 1.56: MIC 1.56 μ/ml; for number of strains with MIC 12.5: MIC 12.5 μ/ml; for number of strains with MIC 25: MIC 25 μ/ml; for number of strains with MIC 50: MIC 50 μ/ml; for number of strains with MIC 100: MIC 100 μ/ml; for number of strains with MIC >100: MIC >100 μ/ml
Source text: (Escherichia coli 31 strain)
as §1

[5] = tested on: Proteus mirabilis 1287 strain; assay: Protective effect against experimentally infected mice, one subcutaneous administration; type: in vivo, mice infected with Proteus mirabilis; conditions: s.c. once, 2 hours after challenge
Protocol: d. Mice (one group included five mice) were infected with Proteus mirabilis 1287 strain via the intraperitoneal route and a solution prepared by dissolving the test antiobiotics in sterilized distilled water was once administered by subcutaneous injection 2 hours after of challenge of the test organism.

male Sprague-Dawley rats [6] = assay: Nephrotoxicity after 1 week subcutaneous injection; type: in vivo; conditions: 7 days
Protocol: b. Test antibiotics were administered to male Sprague-Dawley rats by subcutaneous injection daily for 7 days. After seven days, animals were sacrificed and estimated for organ weight and serum urea-nitrogen including visual studies of kidney.

male dd-N mice = assay: Acute toxicity (minimum lethal dose); type: in vivo
Source text: a. The minimum lethal doses (MLD) when the compound of this invention was intravenously and subcutaneously administered to male dd-N mice are shown in Table X.

male Sprague-Dawley rats [7] = assay: Acute nephrotoxicity in combination with glycerol and furocemide in rats; type: in vivo; conditions: for Serum urea nitrogen: with glycerol 4 ml/Kg of 50% and furocemide 50 mg/Kg s.c., 48 hours; for serum urea nitrogen relative to control group (in words): with glycerol and furocemide
Protocol: c. Glycerol (50%, 4 ml/kg), furocemide (50 mg/kg) and test actibiotics were injected subcutaneously in male Sprague-Dawley rats. […] Animals of each group were sacrificed 48 hours later to estimate serum urea-nitrogen values.

[8] = tested on: Pseudomonas aeruginosa NC-5 strain; assay: Protective effect against experimentally infected mice, one subcutaneous administration; type: in vivo, mice infected with Pseudomonas aeruginosa; conditions: s.c. once
Source text: a. Mice (one group included five mice) were infected with pseudomonas aeruginosa NC-5 strain the intraperitoneal route and a solution prepared by dissolving the test antibiotics in sterilized distilled water was once administered by subcutaneous injection immediately after challenge of the test organism and then the numbers of living mice were inspected. […] (The figures shown in Tables VII-IX have the same meaning).

[9] = tested on: Pseudomonas aeruginosa NC-5 strain; assay: Protective effect against experimentally infected mice, three subcutaneous administrations; type: in vivo, mice infected with Pseudomonas aeruginosa; conditions: s.c.
Protocol: b. Mice (one group included five mice) were infected with pseudomonas aeruginosa NC-5 strain via intraperitoneal route and a solution prepared by dissolving the test substance in sterilized distilled water was administered by subcutaneous injection three times, i. e., immediately after challenge of the test organism, after 2 hours, and after 4 hours.

gram negative bacteria = conditions: background; cited from earlier work
[10] = Water solubility and pH of aqueous solution; type: physicochemical; conditions: 250 mg/ml in water
Protocol: As the compounds of this invention are easily soluble in water, the compound can be clinically used as an agent for parenteral administration such as an agent for intravenous injection and an agent for intramuscular injection. For example, when sodium D(-)-6-[α-(p-hydroxyphenyl)-α-(4-oxo-4H-thiopyran-3-yl-carboxanido acetamido]penicillanate is dissolved in water, the pH of the solution is about 5.8 (250 mg/ml).

Stability of di-hydrate = type: physicochemical
Source text: In addition, if the water-containing organic solvent solution keeps up its homogeneity, an organic solvent immiscible with water such as methylene chloride, chloroform, etc., may be added to the solution.

male Sprague-Dawley rats [11] = conditions: small dose subcutaneously; cited from earlier work

## CC1(C)S[C@@H]2[C@H](NC(=O)[C@H](N)c3ccc(O)cc3)C(=O)N2[C@H]1C(=O)O [Amoxicillin, α-amino-p-hydroxybenzylpenicillin]
[1]
  concentration in blood by oral administration: high concentration in blood by oral administration
[2]; 25 × 2 mg
  number of living mice / number of mice inspected: 0/5
[2]; 50 × 2 mg
  number of living mice / number of mice inspected: 0/5
[2]; 100 × 2 mg
  number of living mice / number of mice inspected: 0/5

## CC1(C)S[C@@H]2[C@H](NC(=O)C(C(=O)O)c3ccccc3)C(=O)N2[C@H]1C(=O)O (stereo partly drawn) [Carbenicillin, α-carboxybenzylpenicillin]
Klebsiella genus
  activity against the Klebsiella genus (in words): weak antibacterial activity against the Klebsiella genus
Klebsiella 78 strain
  number of strains with MIC 1.56: 1
  number of strains with MIC 12.5: 0
  number of strains with MIC 25: 0
  number of strains with MIC 50: 8
  number of strains with MIC 400: 16
  number of strains with MIC >400: 27
Klebsiella 78 strain; MIC 3.13 μ/ml
  number of strains with MIC […]: 1
Klebsiella 78 strain; MIC 6.25 μ/ml
  number of strains with MIC […]: 1
Klebsiella 78 strain; first column headed 100
  number of strains with MIC 100: 8
Klebsiella 78 strain; second column headed 100
  number of strains with MIC 100: 16
[3]
  number of strains with MIC 1.56: 0
  number of strains with MIC 12.5: 0
  number of strains with MIC 25: 3
  number of strains with MIC 50: 4
  number of strains with MIC 100: 8
  number of strains with MIC >100: 20
[3]; MIC 3.13 μ/ml
  number of strains with MIC […]: 0
[3]; MIC 6.25 μ/ml
  number of strains with MIC […]: 0
[4]
  number of strains with MIC 1.56: 1
  number of strains with MIC 12.5: 6
  number of strains with MIC 25: 0
  number of strains with MIC 50: 0
  number of strains with MIC 100: 0
  number of strains with MIC >100: 9
[4]; MIC 3.13 μ/ml
  number of strains with MIC […]: 7
[4]; MIC 6.25 μ/ml
  number of strains with MIC […]: 8
[5]; 1.25 mg
  number of living mice / number of mice inspected: 0/5
[5]; 2.5 mg
  number of living mice / number of mice inspected: 1/5
[5]; 5 mg
  number of living mice / number of mice inspected: 2/5
[5]; 10 mg
  number of living mice / number of mice inspected: 4/5
Male Sprague-Dawley rats [6]; 1000 mg/Kg/day sc
  Kidney weights: 2.53 g
  Serum urea-N: 24.0 mg/dL
  renal findings: no abnormal findings
Male dd-N mice; i.v.
  MLD: 7000 mg/kg
Male dd-N mice; s.c.
  MLD: > 10000 mg/kg
Male Sprague-Dawley rats [7]; 1000 mg/Kg s.c.
  Serum urea nitrogen: 29.7 ± 7.2 mg/dL
Male Sprague-Dawley rats [7]; rat, in vivo
  nephrotoxicity (in words): no nephrotoxicity resulted
Male Sprague-Dawley rats [7]
  serum urea nitrogen relative to control group (in words): no remarkable difference
[8]; 15 mg
  number of living mice / number of mice inspected: 1/5
[8]; 30 mg
  number of living mice / number of mice inspected: 2/5
[8]; 60 mg
  number of living mice / number of mice inspected: 4/5
[9]; 2.5 × 3 mg
  number of living mice / number of mice inspected: 2/5
[9]; 5 × 3 mg
  number of living mice / number of mice inspected: 0/5
[9]; 10 × 3 mg
  number of living mice / number of mice inspected: 5/5

## O=C(Cc1cccs1)N[C@@H]1C(=O)N2C(C(=O)[O-])=C(C[n+]3ccccc3)CS[C@H]12 [Cephaloridine]
Male Sprague-Dawley rats [7]; 500 mg/Kg s.c.
  Serum urea nitrogen: 50.7 ± 13.6 mg/dL
Male Sprague-Dawley rats [7]
  serum urea nitrogen relative to control group (in words): remarkable increase of serum urea nitrogen

## CC1(C)S[C@@H]2[C@H](NC(=O)[C@H](N)C3=CCC=CC3)C(=O)N2[C@H]1C(=O)O [Epicillin, 6-[D-2-amino-2-(1,4-cyclohexadien-1-yl)acetamido]penicillanic acid]
Gram negative bacteria
  activity to gram negative bacteria (in words): selective antibacterial activity to, in particular, gram negative bacteria

## CC1(C)S[C@@H]2[C@H](NC(=O)[C@H](NC(=O)c3csccc3=O)c3ccc(O)cc3)C(=O)N2[C@H]1C(=O)O [Example 3, α-(4-oxo-4H-thiopyran-3-carboxamido)-p-hydroxybenzylpenicillin sodium salt]
Klebsiella 78 strain
  number of strains with MIC 1.56: 0
  number of strains with MIC 12.5: 17
  number of strains with MIC 25: 30
  number of strains with MIC 50: 1
  number of strains with MIC 400: 4
  number of strains with MIC >400: 16
Klebsiella 78 strain; MIC 3.13 μ/ml
  number of strains with MIC […]: 0
Klebsiella 78 strain; MIC 6.25 μ/ml
  number of strains with MIC […]: 2
Klebsiella 78 strain; first column headed 100
  number of strains with MIC 100: 1
Klebsiella 78 strain; second column headed 100
  number of strains with MIC 100: 7
[10]
  pH of the solution: about 5.8
[3]
  number of strains with MIC 1.56: 2
  number of strains with MIC 12.5: 6
  number of strains with MIC 25: 2
  number of strains with MIC 50: 5
  number of strains with MIC 100: 2
  number of strains with MIC >100: 7
[3]; MIC 3.13 μ/ml
  number of strains with MIC […]: 5
[3]; MIC 6.25 μ/ml
  number of strains with MIC […]: 6
[4]
  number of strains with MIC 1.56: 2
  number of strains with MIC 12.5: 9
  number of strains with MIC 25: 2
  number of strains with MIC 50: 0
  number of strains with MIC 100: 0
  number of strains with MIC >100: 9
[4]; MIC 3.13 μ/ml
  number of strains with MIC […]: 1
[4]; MIC 6.25 μ/ml
  number of strains with MIC […]: 8
[5]; 1.25 mg
  number of living mice / number of mice inspected: 1/5
[5]; 2.5 mg
  number of living mice / number of mice inspected: 2/5
[5]; 5 mg
  number of living mice / number of mice inspected: 4/5
[5]; 10 mg
  number of living mice / number of mice inspected: 3/5
Male Sprague-Dawley rats [6]; 1000 mg/Kg/day sc
  Kidney weights: 2.30 g
  Serum urea-N: 20.3 mg/dL
Male dd-N mice; i.v.
  MLD: 3500 mg/kg
Male dd-N mice; s.c.
  MLD: 7000 mg/kg
[2]; 25 × 2 mg
  number of living mice / number of mice inspected: 2/5
[2]; 50 × 2 mg
  number of living mice / number of mice inspected: 3/5
[2]; 100 × 2 mg
  number of living mice / number of mice inspected: 5/5
Male Sprague-Dawley rats [7]; 1000 mg/Kg s.c.
  Serum urea nitrogen: 23.3 ± 2.5 mg/dL
[8]; 15 mg
  number of living mice / number of mice inspected: 2/5
[8]; 30 mg
  number of living mice / number of mice inspected: 3/5
[8]; 60 mg
  number of living mice / number of mice inspected: 5/5
[9]; 2.5 × 3 mg
  number of living mice / number of mice inspected: 5/5
[9]; 5 × 3 mg
  number of living mice / number of mice inspected: 5/5
[9]; 10 × 3 mg
  number of living mice / number of mice inspected: 5/5

## CC1(C)S[C@@H]2[C@H](NC(=O)[C@H](NC(=O)c3csccc3=O)c3ccc(O)cc3)C(=O)N2[C@H]1C(=O)O [Example 27, D(-)-6-[p-hydroxy-phenyl-α-(4-oxo-4H-thiopyran-3-ylcarboxamido)acetamido]penicillanic acid di-hydrate]
Stability of di-hydrate
  stability: pure and stable

## NC[C@H]1O[C@H](O[C@H]2[C@H](O)[C@@H](O[C@H]3O[C@H](CO)[C@@H](O)[C@H](N)[C@H]3O)[C@H](N)C[C@@H]2N)[C@H](O)[C@@H](O)[C@@H]1O [Kanamycin]
Male Sprague-Dawley rats [6]; 500 mg/kg/day sc
  Kidney weights: 3.52 g
  Serum urea-N: 70.7 mg/dL
  renal findings: renal hypertropy, ischemia of renal cortex; also recorded: abnormal increase of serum urea-nitrogen values; also recorded: severe renal impairement

## OCC(O)CO [glycerol]
Male Sprague-Dawley rats [11]
  renal impairment: mild and reversible renal impairment

Source: US3939150A, “Penicillin derivatives” (priority 1973, dated 1976)
